The values below come from patent US9790185B2, “Process for the preparation of regorafenib and its crystalline forms” (SHILPA MEDICARE LIMITED, priority 2014, dated 2017).

Each structure is given as a SMILES string. Read-outs that look alike come from different tables or passages of the source.

Data set [1] is described as follows: Stability on handling and storage of crystalline forms. To be noted: without any significant or measurable change in morphology and physicochemical characteristics.
From the text: (§1) The merit of the process according to the present invention resides in that product isolated after drying is directly obtained as crystalline Form I of Regorafenib (I). Said material is found devoid of any other crystal lattice and is adequately stable to handle and store for longer time (at least up to more than 6 months) without any significant or measurable change in its morphology and physicochemical characteristics. Crystalline Form I of Regorafenib (I) obtained according to the process of the present invention results in the final API purity by of more than 99.5% w/w, and found to be anhydrous with moisture content of not more than 0.5%.
as §1, with “Form III” for “Form I”, “by HPLC” for “by”

Data set [2] has as its system tumour models including colorectal tumour models. As to conditions: preclinical studies; broad spectrum of tumour models including colorectal; mediated by antiangiogenic and antiproliferative effects; cited from earlier work.
For data set [3] the following is noted: background description of the drug substance; cited from earlier work.
The conditions of data set [4]: cited from earlier work.

In the case of `CNC(=O)c1cc(Oc2ccc(NC(=O)Nc3ccc(Cl)c(C(F)(F)F)c3)c(F)c2)ccn1` [crystalline Form I of Regorafenib (I), 4-[4-({[4-chloro-3-(trifluoromethyl)phenyl]carbamoyl}amino)-3-fluorophenoxy]-N-methylpyridine-2-carboxamide], in data set [1], the “time adequately stable to handle and store” value is given as “more than 6 months”.

As to `CNC(=O)c1cc(Oc2ccc(NC(=O)Nc3ccc(Cl)c(C(F)(F)F)c3)c(F)c2)ccn1` [Regorafenib, 4-[4-({[4-chloro-3-(trifluoromethyl)phenyl]carbamoyl}amino)-3-fluorophenoxy]-N-methylpyridine-2-carboxamide], in data set [2], the antitumour activity result was “demonstrated antitumour activity”. Moreover, in data set [3], the hygroscopicity result is reported as “not hygroscopic”. The solubility entry is “slightly soluble” in data set [4] (in 2-propanol); “soluble” in data set [4] (in PEG 400 (macrogol)); “sparingly soluble” in data set [4] (in acetone); “slightly soluble” in data set [4] (in acetonitrile); “slightly soluble” in data set [4] (in dichloromethane); “practically insoluable” in data set [4] (in dilute acid solution). The solubility result in data set [4] (in dilute alkaline solution) was “practically insoluable”; in data set [4] (in ethanol), “slightly soluble”; in data set [4] (in ethyl acetate) it was “slightly soluble”; in data set [4] (in glycerine), “practically insoluable”; in data set [4] (in methanol) it was “slightly soluble”; in data set [4] (in n-heptane) it was “practically insoluable”. Moreover, the figures for the solubility result in data set [4] (in propylene glycol), in data set [4] (in toluene) and in data set [4] (in water) were “slightly soluble”, “practically insoluable” and “practically insoluable”, respectively.
